Consider 13 molecules from US11130769B2 (Prelude Therapeutics Incorporated, priority 2018, dated 2021).

The structures appear in SMILES notation. pIC50, pKi: −log10 of the molar value. Where two headings read alike, the source gives them in different places. Some results are limits rather than exact numbers.

Experiment [1] deals with MCL-1 (Homo sapiens (Human), UniProt Q07820). Put plainly: Cell free Mcl-1:Bim affinity assay (fluorescence polarization competition). It is filed as binding. Particulars: 15 nM MCL-1, 5 nM FITC-Bim, 1 hour at room temperature, read-out: BIM_Ki. Summed up:
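Compounds competed with FITC-labelled Bim peptide (5 nM) for MCL-1 (15 nM) in HEPES/NaCl buffer with 1% DMSO, 1 h at room temperature. Fluorescence polarization (535 nm emission) gave % inhibition versus DMSO and positive controls; IC50 from 10-point curves, converted to Ki by the Nikolovska-Coleska equation.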
In general terms: Polarisation of emitted light reports the rotation of a fluorescent probe.

The test system of experiment [2] is H929 cells. Put plainly: Cell viability assay (H929 10 FBS). Type of experiment: cell-based. To be noted: Homo sapiens, NCI-H929, 24 hours, read-out: H929_10FBS IC50. Summed up: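 H929 cells, 4000/well, in RPMI 1640 with 10% FBS, sodium pyruvate, HEPES and glucose were exposed to compound 24 h at 37 °C. Viability read as luminescence after 30-60 min at RT with CellTiter-Glo or ATPlite 1 Step.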

Sequence of MCL-1 (Q07820 whole entry): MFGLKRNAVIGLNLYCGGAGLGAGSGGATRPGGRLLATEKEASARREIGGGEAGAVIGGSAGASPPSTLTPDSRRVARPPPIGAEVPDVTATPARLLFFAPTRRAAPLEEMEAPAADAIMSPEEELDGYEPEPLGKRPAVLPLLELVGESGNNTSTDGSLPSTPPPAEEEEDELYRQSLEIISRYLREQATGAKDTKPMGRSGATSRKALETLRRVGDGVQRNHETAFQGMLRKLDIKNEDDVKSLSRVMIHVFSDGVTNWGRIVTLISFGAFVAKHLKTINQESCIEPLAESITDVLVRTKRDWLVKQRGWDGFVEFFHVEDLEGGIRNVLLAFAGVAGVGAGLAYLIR

Broadly, the pIC50 is −log10 of the IC50, conventionally taken in molar units. Consider `O=C1Cc2cccc(c2)S(=O)(=O)C[C@@H]2CC[C@H]2CN2C[C@@]3(CCCc4cc(Cl)ccc43)COc3ccc(cc32)S(=O)(=O)N1` [Example 98, (3R,6R,24S)-6′-Chloro-8,8,17,17-tetraoxo-spiro[22-oxa-8,17-dithia-1,16-diazapentacyclo[16.7.2.19,13.03,6.021,26]octacosa-9(28),10,12,18(27),19,21(26)-hexaene-24,1′-tetralin]-15-one], for which the pKi in experiment [1] (class symbols) was 7.00 to 9.00. The pIC50 in experiment [2] is less than 6.00.
`CN1C/C=C/[C@H](OC(=O)N[C@@H]2CCOC2)[C@@H]2CC[C@H]2CN2C[C@@]3(CCCc4cc(Cl)ccc43)COc3ccc(cc32)S(=O)(=O)NC(=O)C12CCC2` [Example 243, [(3R,6R,7S,8E,22S)-6′-Chloro-11-methyl-12,12-(1,3-propylene)-13,15,15-trioxo-spiro[20-oxa-15-thia-1,11,14-triazatetracyclo[14.7.2.03,6.019,24]pentacosa-8,16,18,24-tetraene-22,1′-tetralin]-7-yl] N-[(3R)-tetrahydrofuran-3-yl]carbamate]: in experiment [1] (class symbols), the pKi is more than 9.00. Also, the negative-log IC50 (pIC50) in experiment [2] was more than 6.30.
As for `O=C(Cc1ccncc1)NS(=O)(=O)c1ccc2c(c1)N(CC1CCC1)C[C@@]1(CCCc3cc(Cl)ccc31)CO2` [Example 19, 2-Pyridin-4-yl-N-[(3S)-6′-chloro-5-(cyclobutylmethyl)spiro[2,4-dihydro-1,5-benzoxazepine-3,1′-tetralin]-7-yl]sulfonyl-acetamide], in experiment [1] (numeric values), the pKi was 8.03. The negative-log IC50 (pIC50) in experiment [2] was less than 6.00.
`CO[C@@H]1/C=C/CC[C@@H](C)C(=O)NS(=O)(=O)c2ccc3c(c2)N(C[C@@H]2CC[C@H]21)C[C@@]1(CCCc2cc(Cl)ccc21)CO3` [Example 72, (3R,6R,7R,8E,12R,22S)-6′-Chloro-7-methoxy-12-methyl-15,15-dioxo-spiro[20-oxa-15-thia-1,14-diazatetracyclo[14.7.2.03,6.019,24]pentacosa-8,16(25),17,19(24)-tetraene-22,1′-tetralin]-13-one]: in experiment [1] (class symbols), the pKi was 7.00 to 9.00. Moreover, the pIC50 in experiment [2] is less than 6.00.
In the case of `CO[C@@H]1CCN(C(=O)O[C@H]2/C=C/COC(C)(C)C(=O)NS(=O)(=O)c3ccc4c(c3)N(C[C@@H]3CC[C@H]32)C[C@@]2(CCCc3cc(Cl)ccc32)CO4)C1` [Example 58, [(3R,6R,7S,8E,22S)-6′-Chloro-12,12-dimethyl-13,15,15-trioxo-spiro[11,20-dioxa-15-thia-1,14-diazatetracyclo[14.7.2.03,6.019,24]pentacosa-8,16,18,24-tetraene-22,1′-tetralin]-7-yl] (3R)-3-methoxypyrrolidine-1-carboxylate], in experiment [1] (class symbols), the pKi was more than 9.00. Moreover, the pIC50 in experiment [2] is more than 6.30.
For `CN(C(=O)O[C@H]1/C=C/COC(C)(C)C(=O)NS(=O)(=O)c2ccc3c(c2)N(C[C@@H]2CC[C@H]21)C[C@@]1(CCOc2cc(Cl)ccc21)CO3)[C@@H]1CCOC1` [Example 301, [(3R,6R,7S,8E,22S)-7′-Chloro-12,12-dimethyl-13,15,15-trioxo-spiro[11,20-dioxa-15-thia-1,14-diazatetracyclo[14.7.2.03,6.019,24]pentacosa-8,16,18,24-tetraene-22,4′-chromane]-7-yl] N-methyl-N-[(3R)-tetrahydrofuran-3-yl]carbamate] the same measures were more than 9.00 and more than 6.30.
For the molecule `O=C(CCc1ccncc1)NS(=O)(=O)c1ccc2c(c1)N(CC1CCC1)C[C@@]1(CCCc3cc(Cl)ccc31)CO2` (racemic) [Example 20, 3-Pyridin-4-yl-N-[rac-(3S)-6′-chloro-5-(cyclobutylmethyl)spiro[2,4-dihydro-1,5-benzoxazepine-3,1′-tetralin]-7-yl]sulfonyl-propanamide], the pKi in experiment [1] (numeric values) is 7.66. Further, in experiment [2], the negative logarithm of the IC50 (pIC50) was less than 6.00.
For the molecule `CC1(C)OC/C=C/[C@H](OC(=O)NC2CCOCC2)[C@@H]2CC[C@H]2CN2C[C@@]3(CCCc4cc(Cl)ccc43)COc3ccc(cc32)S(=O)(=O)NC1=O` [Example 185, [(3R,6R,7S,8E,22S)-6′-Chloro-12,12-dimethyl-13,15,15-trioxo-spiro[11,20-dioxa-15-thia-1,14-diazatetracyclo[14.7.2.03,6.019,24]pentacosa-8,16,18,24-tetraene-22,1′-tetralin]-7-yl] N-tetrahydropyran-4-ylcarbamate], the pKi in experiment [1] (class symbols) is more than 9.00. For the same molecule, the pIC50 in experiment [2] is more than 6.30.
Take `CN(C)C(=O)O[C@@]1(C)/C=C/COC(C)(C)C(=O)NS(=O)(=O)c2ccc3c(c2)N(C[C@@H]2CC[C@H]21)C[C@@]1(CCCc2cc(Cl)ccc21)CO3` [Example 293, [(3R,6R,7S,8E,22S)-6′-chloro-7,12,12-trimethyl-13,15,15-trioxo-spiro[11,20-dioxa-15-thia-1,14-diazatetracyclo[14.7.2.03,6.019,24]pentacosa-8,16,18,24-tetraene-22,1′-tetralin]-7-yl] N,N-dimethylcarbamate]: the pKi in experiment [1] (class symbols) was more than 9.00. In experiment [2], the pIC50 was more than 6.30.
The corresponding values for `CCN1C/C=C/[C@H](O)[C@@H]2CC[C@H]2CN2C[C@@]3(CCCc4cc(Cl)ccc43)COc3ccc(cc32)S(=O)(=O)NC(=O)C1(C)C` [Example 219, (3R,6R,7S,8E,22S)-6′-Chloro-7-hydroxy-11-ethyl-12,12-dimethyl-15,15-dioxo-spiro[20-oxa-15-thia-1,11,14-triazatetracyclo[14.7.2.03,6.019,24]pentacosa-8,16,18,24-tetraene-22,1′-tetralin]-13-one] are 7.00 to 9.00 and more than 6.30.
On to `CO[C@@H]1/C=C/CCCCC(=O)NS(=O)(=O)c2ccc3c(c2)N(C[C@@H]2CC[C@H]21)C[C@@]1(CCCc2cc(Cl)ccc21)CO3` [Example 73, (3R,6R,7R,8E,23S)-6′-Chloro-7-methoxy-16,16-dioxo-spiro[21-oxa-16-thia-1,15-diazatetracyclo[15.7.2.03,6.020,25]hexacosa-8,17,19,25-tetraene-23,1′-tetralin]-14-one], for which, in experiment [1] (class symbols), the pKi was 7.00 to 9.00. The negative logarithm of the IC50 (pIC50) in experiment [2] was less than 6.00.
As to `CCN1C/C=C/[C@@H](OC)[C@@H]2CC[C@H]2CN2C[C@@]3(CCCc4cc(Cl)ccc43)COc3ccc(cc32)S(=O)(=O)NC(=O)[C@H]1C` [Example 132, (3R,6R,7R,8E,12R,22S)-6′-Chloro-7-methoxy-11-ethyl-12-methyl-15,15-dioxo-spiro[20-oxa-15-thia-1,11,14-triazatetracyclo[14.7.2.03,6.019,24]pentacosa-8,16(25),17,19(24)-tetraene-22,1′-tetralin]-13-one], the pKi in experiment [1] (class symbols) is 7.00 to 9.00. Further, in experiment [2], the pIC50 is more than 6.30.
In the case of `CN(C(=O)O[C@H]1/C=C/COC(C)(C)C(=O)NS(=O)(=O)c2ccc3c(c2)N(C[C@@H]2CC[C@H]21)C[C@@]1(CCCc2cc(Cl)ccc21)CO3)[C@H]1CCOC1` [Example 202, [(3R,6R,7S,8E,22S)-6′-Chloro-12,12-dimethyl-13,15,15-trioxo-spiro[11,20-dioxa-15-thia-1,14-diazatetracyclo[14.7.2.03,6.019,24]pentacosa-8,16,18,24-tetraene-22,1′-tetralin]-7-yl] N-methyl-N-[(3S)-tetrahydrofuran-3-yl]carbamate], the pKi in experiment [1] (class symbols) is more than 9.00. Also, in experiment [2], the negative-log IC50 (pIC50) is more than 6.30.
